Data taken from US5106762A, “Ligand-label conjugates which contain polyoxoanions of sulfur or phosphorus” (Georgetown University, priority 1990, dated 1992).

Experiments:
[1] = test system: murine monoclonal anti-DNP antibody #51; test: Binding of DNP-conjugates to anti-DNP-Sepharose; settings: for binding to anti-DNP-Sepharose after extensive washing (FIG. 3): 3:1 molar ratio of conjugate to immobilized antibody; for amount specifically bound to the antigen binding sites of immobilized antibody #51: after subtraction of non-specific binding to non-immune IgG-Sepharose; for DNP-Conjugate Bound / Ratio of Bound DNP-Conjugate to Immobilized IgG: binding to anti-DNP IgG1; for DNP-Conjugate Bound: applied conjugate to immobilized IgG 3.0 moles/moles, insulin conjugates 125I-labeled; for Ratio of Bound DNP-Conjugate to Immobilized IgG: applied ratio 3.0
Method: (§1) Fluorescence intensity was measured on a SLM 8000 fluorimeter at 490 nm excitation and 519 nm emission. Individual fluorescence standard curves with known concentrations of the different DNP-fluorescein conjugates were used to calculate the amounts of DNP-conjugates from fluorescence units. Antibodies were coupled to tresyl chloride-activated Sepharose 4B (Sigma) at a concentration of 200 ug antibody/100 mg gel according to the manufacturer's recommendation. The amount of immobilized antibody was determined using a Coomassie blue assay as described in Ahmad et al, Anal. Biochem., vol. 148, pp 533-541 (1985). Peptide and protein determinations in fluid-phase were performed by UV absorbance at 280 nm, by the bicinchoninic acid method (Smith et al, Anal. Biochem., vol. 150, pp. 76-85 (1985)) using the Pierce BCA Protein Assay Reagent (Pierce), and by the Folin-Ciocalteau method (Lowry et al, J. Biol. chem., vol. 193, pp. 265 (1951)). The A-chain of bovine insulin (oxidized to the S-sulfonate form) (Sigma), the DNP-Ins conjugate, and the DNP-Ins-Flu conjugate were radiolabeled with Na^125 I (Amersham, Arlington Heights, IL) using immobilized chloramine-T (Iodo-Beads; Pierce, Rockford, IL) (Petrella et al, J. Immunol. Methods, vol. 104, pp. 159-172 (1987)).
(§2) Specific binding of the DNP-conjugates was determined with the murine monoclonal anti-DNP antibody #51 (Stanley et al, J. Immunol. Methods, vol. 64, pp. 119-132 (1983) and Steward et al, J. Immunol. Methods, vol. 78, pp. 173-190 (1985)) coupled to tresyl chloride-activated Sepharose 4B (anti-DNP-Sepharose) The monoclonal IgG1 antibody #51 (purified from ascites) was kindly provided by Dr. M. W. Steward (Dept. of Medical Microbiology, London School of Hygiene and Tropical Medicine, London, U.K.). Nonspecific binding was measured with Sepharose 4B-immobilized non-immune mouse IgG purified from mouse serum (Jackson ImmunoResearch Laboratories, West Grove, PA) (IgG-Sepharose). After removal of buffer by vacuum filtration on a scintered glass funnel, 50 mg aliquots of Sepharose 4B-antibody matrices were transferred to plastic conical vials and incubated with ^125 I-labeled DNP-insulin A-chain-fluorescein conjugate (1.6×10^6 cpm/nmole), or ^125 I-labeled DNP-insulin A-chain conjugate without attached fluorescein residues (3.3×10^6 cpm/nmole), or non-radiolabeled DNP-Lys-Fl at a 3 to 1 molar ratio of DNP-derivative to immobilized IgG in 10 mM phosphate/150 mM NaCl, pH 7.6, overnight at 4° C. on a rocking platform. Unbound conjugate was recovered by poking a hole in the bottom of the plastic vial with a 30 gauge needle, loading the vial on the top of a glass test tube, and centrifuging. Subsequent washing steps were performed with 150 μl of 10 mM phosphate/150 mM NaCl/0.1% (v/v) Triton X-100, pH 7.6. Aliquots of the solutions collected in the bottom of the test tubes after centrifugation were assayed for radioactivity or fluorescence.

[2] = test system: non-immune mouse IgG; test: Nonspecific binding of DNP-conjugates to IgG-Sepharose; settings: for DNP-Conjugate Bound / Ratio of Bound DNP-Conjugate to Immobilized IgG: binding to non-immune IgG; for DNP-Conjugate Bound: applied conjugate to immobilized IgG 3.0 moles/moles; for Ratio of Bound DNP-Conjugate to Immobilized IgG: applied ratio 3.0
Method: as §1, §2

[3] = test system: immobilized monoclonal anti-DNP antibody #51; test: Displacement of DNP-conjugates from immobilized monoclonal anti-DNP antibody by DNP-lysine; assay type: binding, murine; settings: for Displacement of Antibody-Bound DNP-Conjugate by DNP-Lysine: ± S.D., free DNP-lysine to antibody-bound conjugate 2.0 (DNP-Lys-Fl) or 3.4 (DNP-Ins-Fl, DNP-Ins) mole/mole
Method: as §2
Aliquots of anti-DNP-Sepharose (50 mg) were incubated with ^125 I-labeled DNP-insulin A-chain, or ^125 I-labeled DNP-insulin A-chain-fluorescein, or DNP-lysine-fluorescein and washed with 10 mM phosphate/150 mM NaCl/0.1% (v/v) Triton X-100, pH 7.6 , as described above in Specific and Nonspecific Binding of DNP-Conjugates. […] Displacement was determined by assaying aliquots of the solutions collected in the bottom of the test tubes after centrifugation for radioactivity or fluorescence.

[4] = Determination of fluorescence lifetime (variable frequency phase fluorimeter); assay type: physicochemical
Method: The fluorescence lifetime of the DNP-fluorescein conjugates was measured on an ISS Greg-200 variable frequency phase fluorimeter as described previously (Lakowicz et al, Biophys. J., vol. 46, pp. 463-477 (1984) and Gratton et al, Biophys. J., vol. 46, pp. 479-486 (1984)) using 1-chloro-bis-(phenylethynyl)anthracene (Aldrich) in ethanol (3.791 ns) as a reference (Thompson et al. Anal. Chem., vol. 60, pp. 670-674 (1988)). The resulting phase and modulation data for DNP-Ins-FL were fit to one, two, and three emissive components using a Simplex algorithm supplied by ISS. […] When the data were fit to a three component model, the third component was weak (<5%), poorly defined (1.1±3.2 ns), and gave no improvement in X^2. Therefore, a third component appears to be unnecessary to fit the data. Since the DNP moiety has the ability to quench the fluorescein emission, the data are best explained by two fluorescein residues being remote from and unquenched by the DNP group with the third fluorescein residue being closer and subject to quenching. In accord with this explanation is the observation that the fluorescence of the DNP-lysine-fluorescein derivative was substantially quenched as shown by its reduced quantum efficiency and subanosecond fluorescence lifetime.

Row | Compound | binding to anti-DNP-Sepharose after extensive washing (FIG. 3) [1] [%] | fold difference in binding of DNP-Lys-Fl versus DNP-Ins-Fl to anti-DNP-Sepharose ([1]; 3:1 molar ratio, after extensive washing) [fold] | amount specifically bound to the antigen binding sites of immobilized antibody #51 [1] | DNP-Conjugate Bound [1] [nmol] | Ratio of Bound DNP-Conjugate to Immobilized IgG [1] [moles/moles] | non-specific binding of DNP-Lys-Fl to immobilized non-immune IgG relative to DNP-Ins-Fl [2] | DNP-Conjugate Bound [2] [nmol] | Ratio of Bound DNP-Conjugate to Immobilized IgG [2] [moles/moles] | Displacement of Antibody-Bound DNP-Conjugate by DNP-Lysine [3] [pmol] | fluorescence lifetime ([4]; in words) | non-specific binding of DNP-Ins-Fl relative to DNP-Lys-Fl ([2]; see Table II) | efficiency of displacement by DNP-lysine relative to DNP-Ins [3] | efficiency of displacement by DNP-lysine relative to DNP-Lys-Fl ([3]; under comparable conditions) | fluorescence lifetime, shorter lifetime component ([4]; two component fit) [ns] | fraction of first lifetime component ([4]; two component fit) [%] | fraction of shorter lifetime component ([4]; two component fit) [%] | fluorescence lifetime, first component ([4]; two component fit, X^2 =1.26) [ns]
1 | O=C(O)c1cc(NC(=S)N[C@@H](CCCCNc2ccc([N+](=O)[O-])cc2[N+](=O)[O-])C(=O)O)ccc1-c1c2ccc(=O)cc-2oc2cc(O)ccc12 [DNP-Lys-Fl, DNP-lysine-fluorescein, reference compound] | 62.7 | 1.6 | 0.4 mole conjugate/mole antibody | 0.37 ± 0.02 | 1.9 | three-fold higher | 1.27 ± 0.07 | 1.5 | 0.45 ± 0.14 | subanosecond |  |  |  |  |  |  | 
2 | DNP-insulin A-chain-fluorescein [DNP-Ins-Fl] | 38.8 |  | 0.7 mole conjugate/mole antibody | 0.11 ± 0.03 | 1.2 |  | 0.44 ± 0.16 | 0.5 | 3.20 ± 0.70 |  | about one-third | two-fold more efficient | much more efficient | 2.068±0.150 | 64±7 | 36 | 4.091±0.177
3 | dinitrophenyl-insulin A-chain [DNP-Ins] |  |  |  | 0.11 ± 0.01 | 1.2 |  |  |  | 1.56 ± 0.01 |  |  |  |  |  |  |  | 
